Literature values in patent EP4555997A1, “WATER-SOLUBLE COMPOSITION COMPRISING UROLITHIN” (Science4Beauty Sp. z o.o., priority 2023, dated 2025).

Conditions: HPLC-determined, water at 30° C

- solubility in water: less than 0.01 g/L
Compound: O=c1oc2cc(O)ccc2c2ccc(O)cc12 [UroA, 3,8-dihydroxy-6H-benzo[c]chromen-6-one]
